“And” between values parts separate entries of the source, which are not always exact repeats. Identical values can stand only once. Bounds are passed on as bounds.

The first experiment has as its system GCG-mediated increases in blood glucose. The experiment can be described thus: Glucagon challenge in vivo assay measuring blood glucose (normal dog glucagon challenge test). The settings on record: 3 mg/kg oral gavage; fasted male beagle dogs; glucagon 5 μg/kg intramuscular 90 min after dosing. Here is the method: Glucagon Challenge In Vivo Assay Measuring Blood Glucose
The efficacy of a glucagon receptor antagonist was evaluated using a normal dog glucagon challenge test. Male beagle dogs were overnight fasted prior to the study. Test compound (at 3 mg/kg and 10 mg/kg for Compound #196 and at 10 mg/kg for Compounds #180, #248 and #253) or vehicle (0.5% hydroxypropyl methylcellulose) was dosed via oral gavage. Ninety minutes later, the dogs (1.5 years old, ˜9 Kg) were submitted to a glucagon challenge test by a single intramuscular injection of glucagon (Glucagon, rDNA origin, Eli Lilly, Indianapolis, Ind.) at dose of 5 μg/kg. Blood glucose levels were determined at times −10 min, 0 min (on challenge), 10 min, 20 min, 30 min, and 60 min after glucagon injection.
`Cc1cc2c(cnn2[C@@H](CC(C)C)c2ccc(C(=O)NCCC(=O)O)cc2)cc1-c1ccc(C(F)(F)F)cc1Cl` [Compound #196, 3-[[4-[(1S)-1-[5-[2-Chloro-4-(trifluoromethyl)phenyl]-6-methyl-indazol-1-yl]-3-methyl-butyl]benzoyl]amino]propanoic acid]: the “inhibition of GCG-mediated increases in blood glucose vs vehicle” value (from here on “inhibition of GCG-mediated increases”) amounted to 5.9%.

Still in this experiment, the particulars now being: 10 mg/kg oral gavage; fasted male beagle dogs; glucagon 5 μg/kg intramuscular.
`Cc1c(-c2ccc(C(F)(F)F)cc2Cl)ccc2nn([C@@H](CC(C)C)c3ccc(C(=O)NCCC(=O)O)cc3)cc12` [Compound #180, 3-[[4-[(1S)-1-[5-[2-Chloro-4-(trifluoromethyl)phenyl]-4-methyl-indazol-2-yl]-3-methyl-butyl]benzoyl]amino]propanoic acid]: the “blood glucose levels during glucagon challenge compared with vehicle treated group” value was “markedly reduced blood glucose levels” and the “duration of blood glucose reducing effect after glucagon injection” value is listed as “more than 60 min”.

Staying with this experiment, now noted: 10 mg/kg oral gavage; fasted male beagle dogs; glucagon 5 μg/kg intramuscular 90 min after dosing.
On to `Cc1c(-c2ccc(C(F)(F)F)cc2Cl)ccc2nn([C@@H](CC(C)C)c3ccc(C(=O)NCCC(=O)O)cc3)cc12` [Compound #180, 3-[[4-[(1S)-1-[5-[2-Chloro-4-(trifluoromethyl)phenyl]-4-methyl-indazol-2-yl]-3-methyl-butyl]benzoyl]amino]propanoic acid], for which the “inhibition of GCG-mediated increases” value was determined as 28.9%.

In the case of `Cc1cc2c(cnn2[C@@H](CC(C)C)c2ccc(C(=O)NCCC(=O)O)cc2)cc1-c1ccc(C(F)(F)F)cc1Cl` [Compound #196, 3-[[4-[(1S)-1-[5-[2-Chloro-4-(trifluoromethyl)phenyl]-6-methyl-indazol-1-yl]-3-methyl-butyl]benzoyl]amino]propanoic acid], the “inhibition of GCG-mediated increases” value came out at 23.9%.

The target in another experiment is T1, human GCGR (Homo sapiens, UniProt P47871).
T1 construct: expressed in transfected cells; host or cells: HEK293 (hGluc-1HEK), pcDNA3.1, G418 selection
T1 sequence (P47871 26-477): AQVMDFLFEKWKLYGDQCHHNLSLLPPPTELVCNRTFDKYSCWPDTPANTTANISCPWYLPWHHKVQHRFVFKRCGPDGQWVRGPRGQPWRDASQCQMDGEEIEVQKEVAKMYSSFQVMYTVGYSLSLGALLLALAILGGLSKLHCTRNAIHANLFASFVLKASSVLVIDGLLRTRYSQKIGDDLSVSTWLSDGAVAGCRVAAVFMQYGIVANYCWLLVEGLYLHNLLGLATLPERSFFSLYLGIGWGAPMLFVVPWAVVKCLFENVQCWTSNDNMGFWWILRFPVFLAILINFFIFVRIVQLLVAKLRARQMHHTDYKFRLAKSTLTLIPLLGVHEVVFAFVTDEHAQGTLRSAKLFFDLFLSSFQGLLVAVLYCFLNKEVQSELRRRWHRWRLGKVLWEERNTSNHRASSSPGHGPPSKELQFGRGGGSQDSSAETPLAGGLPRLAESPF
The experiment in a line: Cellular functional assay, cAMP readout (glucagon-stimulated cAMP, LANCE TR-FRET). The conditions noted are these: HEK293 cells stably expressing full-length human GCGR; glucagon 100 pM; IC50 converted to Ki; read-out: Inhibition of cAMP Ki. The class given is cell-based. For orientation: In TR-FRET formats the signal depends on donor and acceptor labels being close together.
Turning to `Cc1c(-c2ccc(C(F)(F)F)cc2Cl)ccc2nn([C@@H](CC(C)C)c3ccc(C(=O)NCCC(=O)O)cc3)cc12` [Compound #180, 3-[[4-[(1S)-1-[5-[2-Chloro-4-(trifluoromethyl)phenyl]-4-methyl-indazol-2-yl]-3-methyl-butyl]benzoyl]amino]propanoic acid], the Ki was 25 nM (2×) and 20 nM.

Consider `Cc1cc2c(cnn2[C@@H](CC(C)C)c2ccc(C(=O)NCCC(=O)O)cc2)cc1-c1ccc(C(F)(F)F)cc1Cl` [Compound #196, 3-[[4-[(1S)-1-[5-[2-Chloro-4-(trifluoromethyl)phenyl]-6-methyl-indazol-1-yl]-3-methyl-butyl]benzoyl]amino]propanoic acid], for which the Ki is 32 nM.

Consider `CC(C)CC(c1ccc(C(=O)NCCC(=O)O)cc1)n1ncc2cc(-c3cc4ccc(F)cc4s3)ccc21` (stereo not drawn) [compound 126], for which the Ki stood at 280 nM.

For `CCCCCCC(c1ccc(C(=O)NCCC(=O)O)cc1)n1ncc2cc(-c3ccc(C(C)(C)C)cc3)ccc21` (stereo not drawn) [compound 128], the inhibition constant Ki is 199 nM.

Take `CC(C)CC(c1ccc(C(=O)NCCC(=O)O)cc1)n1cc2cc(-c3cc4cc(F)ccc4s3)ccc2n1` (stereo not drawn) [compound 129]: the inhibition constant Ki stood at 88 nM.

Consider `O=C(O)CCNC(=O)c1ccc(C(CC2CCCCC2)n2ncc3cc(-c4ccc(C(F)(F)F)cc4)ccc32)cc1` (stereo not drawn) [compound 131], for which the Ki amounted to 310 nM.

For `COc1ccc2sc(-c3ccc4c(cnn4C(CC(C)C)c4ccc(C(=O)NCCC(=O)O)cc4)c3)cc2c1` (stereo not drawn) [compound 132], the inhibition constant Ki amounted to 230 nM.

For `O=C(O)CCNC(=O)c1ccc(C(CCC2CCCCC2)n2cc3cc(-c4ccc(C(F)(F)F)cc4)ccc3n2)cc1` (stereo not drawn) [compound 133], the Ki was 92 nM.

As for `O=C(O)CCNC(=O)c1ccc(C(C2CCCCC2)n2cc3cc(-c4ccc(C(F)(F)F)cc4)ccc3n2)cc1` (stereo not drawn) [compound 136], the inhibition constant Ki was 135 nM.

On to `O=C(O)CCNC(=O)c1ccc(C(CC2CC2)n2cc3cc(-c4ccc(C(F)(F)F)cc4)ccc3n2)cc1` (stereo not drawn) [compound 139], for which the inhibitory constant (Ki) was 200 nM.

Take `COc1c(-c2ccc(C(F)(F)F)cc2C)ccc2c1cnn2[C@H](CC(C)C)c1ccc(C(=O)NCCC(=O)O)cc1` [compound 145, (R)-3-(4-(1-(4-Methoxy-5-(2-methyl-4-(trifluoromethyl)phenyl)-1H-indazol-1-yl)-3-methylbutyl)benzamido)propanoic acid]: the inhibition constant (Ki) stood at 1850 nM.

Take `Cc1cc(Cl)ccc1-c1ccc2c(cnn2C(CC(C)(C)C)c2ccc(C(=O)NCCC(=O)O)cc2)c1` (stereo not drawn) [compound 151]: the Ki is 90 nM.

With `Cc1cc(Cl)ccc1-c1ccc2nn(C(CC3CCCCC3)c3ccc(C(=O)NCCC(=O)O)cc3)cc2c1` (stereo not drawn) [compound 153], the inhibition constant (Ki) was 42 nM.

As for `Cc1cc(Cl)ccc1-c1ccc2c(cnn2C(CCC2CCCCC2)c2ccc(C(=O)NCCC(=O)O)cc2)c1` (stereo not drawn) [compound 157], the Ki came to 250 nM.

As for `CCCCCCC(c1ccc(C(=O)NCCC(=O)O)cc1)n1ncc2cc(-c3ccc(C(F)(F)F)cc3)ccc21` (stereo not drawn) [compound 159], the inhibitory constant (Ki) is 155 nM.

As for `CC(C)CC(c1ccc(C(=O)NCCC(=O)O)cc1)n1ncc2cc(-c3cnn(C)c3)ccc21` (stereo not drawn) [compound 164], the Ki is more than 5200 nM.

`CC(C)CC(c1ccc(C(=O)NCCC(=O)O)cc1)n1ncc2cc(-c3cccc4ccccc34)ccc21` (stereo not drawn) [compound 165]: the inhibition constant (Ki) turned out to be 1350 nM.

Consider `CCCCCC(c1ccc(C(=O)NCCC(=O)O)cc1)n1cc2cc(-c3ccc(C(C)(C)C)cc3)ccc2n1` (stereo not drawn) [compound 170], for which the Ki came to 245 nM.

As to `CCCCCC(c1ccc(C(=O)NCCC(=O)O)cc1)n1cc2cc(-c3ccc(C(F)(F)F)cc3)ccc2n1` (stereo not drawn) [compound 171], the Ki turned out to be 133 nM.

Regarding `CC(C)CC(c1ccc(C(=O)NCCC(=O)O)cc1)n1ncc2cc(-c3cc4cc(F)ccc4s3)ccc21` (stereo not drawn) [compound 172], the Ki amounted to 260 nM.

As for `CCOc1c(-c2ccc(C)cc2C)ccc2nn(C(CC(C)C)c3ccc(C(=O)NCCC(=O)O)nc3)cc12` (stereo not drawn) [compound 182], the Ki is 70 nM.

For `Cc1cc(Cl)ccc1-c1ccc2c(cnn2C(CC2CCCCC2)c2ccc(C(=O)NCCC(=O)O)nc2)c1` (stereo not drawn) [compound 183], the inhibition constant (Ki) stood at 350 nM.

With `O=C(O)CCNC(=O)c1ccc(C(CC2CCCC2)n2cc3cc(-c4ccc(C(F)(F)F)cc4)ccc3n2)cn1` (stereo not drawn) [compound 188], the inhibition constant (Ki) was found to be 165 nM.

With `CCCCCCC(c1ccc(C(=O)NCCC(=O)O)nc1)n1ncc2cc(-c3ccc(C(F)(F)F)cc3)ccc21` (stereo not drawn) [compound 193], the inhibition constant (Ki) was 155 nM.

For the compound `Cc1cc(Cl)ccc1-c1ccc2c(cnn2C(CC2CCCCC2)c2ccc(C(=O)NCCC(=O)O)cc2)c1` (stereo not drawn) [compound 194], the Ki was 210 nM.

In the case of `Cc1cc(Cl)ccc1-c1ccc2nn(C(CC(C)(C)C)c3ccc(C(=O)NCCC(=O)O)cc3)cc2c1` (stereo not drawn) [compound 195], the inhibition constant Ki amounted to 42 nM.

`O=C(O)CCNC(=O)c1ccc(C(CC2CCCC2)n2ncc3cc(-c4ccc(C(F)(F)F)cc4)ccc32)cn1` (stereo not drawn) [compound 199]: the Ki was determined as 310 nM.

Turning to `O=C(O)CCNC(=O)c1ccc(C(CCc2ccc(Cl)cc2)n2cc3cc(-c4ccc(C(F)(F)F)cc4)ccc3n2)cc1` (stereo not drawn) [compound 200], the inhibitory constant (Ki) was determined as 80 nM.

On to `CCCCCCC(c1ccc(C(=O)NCCC(=O)O)nc1)n1cc2cc(-c3ccc(Cl)cc3C)ccc2n1` (stereo not drawn) [compound 203], for which the Ki was 75 nM.

With `CCCCCCC(c1ccc(C(=O)NCCC(=O)O)cc1)n1cc2cc(-c3ccc(Cl)cc3C)ccc2n1` (stereo not drawn) [compound 204], the inhibition constant (Ki) was 21 nM.

In the case of `O=C(O)CCNC(=O)c1ccc(C(CC2CCCC2)n2ncc3cc(-c4ccc(C(F)(F)F)cc4)ccc32)cc1` (stereo not drawn) [compound 208], the Ki came out at 175 nM.

Regarding `Cc1cc(Cl)ccc1-c1ccc2c(cnn2C(CCC2CCCCC2)c2ccc(C(=O)NCCC(=O)O)nc2)c1` (stereo not drawn) [compound 210], the inhibitory constant (Ki) is 365 nM.

Regarding `O=C(O)CCNC(=O)c1ccc(C(CC2CCC2)n2cc3cc(-c4ccc(C(F)(F)F)cc4)ccc3n2)cc1` (stereo not drawn) [compound 211], the Ki came to 85 nM.

Consider `CC(C)(C)CC(c1ccc(C(=O)NCCC(=O)O)nc1)n1cc2cc(-c3ccc(C(F)(F)F)cc3)ccc2n1` (stereo not drawn) [compound 212], for which the Ki turned out to be 90 nM.

With `CC(C)CC(c1ccc(C(=O)NCCC(=O)O)cc1)n1ncc2cc(-c3cccnc3)ccc21` (stereo not drawn) [compound 219], the inhibition constant Ki is more than 5200 nM.

For the compound `CC(C)CC(c1ccc(C(=O)NCCC(=O)O)cc1)n1ncc2cc(-c3ccsc3)ccc21` (stereo not drawn) [compound 221], the Ki is 2900 nM.

Consider `COc1ccc2cc(-c3ccc4c(cnn4C(CC(C)C)c4ccc(C(=O)NCCC(=O)O)cc4)c3)ccc2c1` (stereo not drawn) [compound 222], for which the Ki is 800 nM.

`Cc1ccc2sc(-c3ccc4c(cnn4C(CC(C)C)c4ccc(C(=O)NCCC(=O)O)cc4)c3)cc2c1` (stereo not drawn) [compound 230]: the Ki worked out at 280 nM.

As to `CC(C)(C)CC(c1ccc(C(=O)NCCC(=O)O)cc1)n1ncc2cc(-c3ccc(C(F)(F)F)cc3)ccc21` (stereo not drawn) [compound 231], the Ki was found to be 95 nM.

`O=C(O)CCNC(=O)c1ccc(C(CCCC(F)(F)F)n2ncc3cc(-c4ccc(C(F)(F)F)cc4)ccc32)cc1` (stereo not drawn) [compound 234]: the inhibitory constant (Ki) is 275 nM.

On to `CC(C)CC(c1ccc(C(=O)NCCC(=O)O)nc1)n1cc2c(C(F)(F)F)c(-c3ccc(C(F)(F)F)cc3Cl)ccc2n1` (stereo not drawn) [compound 235], for which the inhibition constant Ki is more than 5200 nM.

Consider `CC(C)(C)CC(c1ccc(C(=O)NCCC(=O)O)nc1)n1ncc2cc(-c3ccc(C(F)(F)F)cc3)ccc21` (stereo not drawn) [compound 237], for which the inhibition constant (Ki) came out at 160 nM.

For the compound `Cc1cc(Cl)ccc1-c1ccc2c(cnn2C(CC(C)(C)C)c2ccc(C(=O)NCCC(=O)O)nc2)c1` (stereo not drawn) [compound 238], the Ki worked out at 210 nM.

With `O=C(O)CCNC(=O)c1ccc(C(CC2CCCCC2)n2cc3cc(-c4ccc(C(F)(F)F)cc4)ccc3n2)cn1` (stereo not drawn) [compound 240], the inhibition constant (Ki) was 200 nM.

Regarding `CCCCCCC(c1ccc(C(=O)NCCC(=O)O)nc1)n1ncc2cc(-c3ccc(Cl)cc3C)ccc21` (stereo not drawn) [compound 244], the Ki was 200 nM.

With `CCCCCCC(c1ccc(C(=O)NCCC(=O)O)cc1)n1ncc2cc(-c3ccc(Cl)cc3C)ccc21` (stereo not drawn) [compound 245], the Ki was 210 nM.

In the case of `Cc1cc(Cl)ccc1-c1ccc2nn(C(CCC3CCCCC3)c3ccc(C(=O)NCCC(=O)O)cc3)cc2c1` (stereo not drawn) [compound 247], the inhibition constant Ki was found to be 37 nM.

As to `Cc1cc(Cl)ccc1-c1ccc2nn(C(CC3CCCCC3)c3ccc(C(=O)NCCC(=O)O)nc3)cc2c1` (stereo not drawn) [compound 249], the Ki is 42 nM.

Consider `O=C(O)CCNC(=O)c1ccc(C(CC2CCC2)n2ncc3cc(-c4ccc(C(F)(F)F)cc4)ccc32)cn1` (stereo not drawn) [compound 251], for which the Ki was determined as 650 nM.

Consider `O=C(O)CCNC(=O)c1ccc(C(CC2CCCC2)n2cc3cc(-c4ccc(C(F)(F)F)cc4)ccc3n2)cc1` (stereo not drawn) [compound 254], for which the Ki was found to be 90 nM.

Regarding `O=C(O)CCNC(=O)c1ccc(C(CC2CCCCC2)n2ncc3cc(-c4ccc(C(F)(F)F)cc4)ccc32)cn1` (stereo not drawn) [compound 255], the Ki worked out at 550 nM.

Consider `Cc1cc(Cl)ccc1-c1ccc2nn(C(CC(C)(C)C)c3ccc(C(=O)NCCC(=O)O)nc3)cc2c1` (stereo not drawn) [compound 257], for which the inhibition constant (Ki) came out at 26 nM.

A word on the Ki: it is a dissociation constant, usually derived from enzyme kinetics or from competition with a known ligand.
